Measured values reported in article PMC5394417, “Investigating the molecular mechanism of positive and negative allosteric modulators in the calcium-sensing receptor dimer” (Scientific Reports, 2017).

Target: T1, HA-S170A/D190A CaSR mutant (Rattus norvegicus, UniProt P48442, D190A/S170A)
T1 construct: mGluR5 signal peptide (N); expressed in transfected cells; host or cells: HEK293T
T1 sequence (P48442 20-1079 S170A/D190A): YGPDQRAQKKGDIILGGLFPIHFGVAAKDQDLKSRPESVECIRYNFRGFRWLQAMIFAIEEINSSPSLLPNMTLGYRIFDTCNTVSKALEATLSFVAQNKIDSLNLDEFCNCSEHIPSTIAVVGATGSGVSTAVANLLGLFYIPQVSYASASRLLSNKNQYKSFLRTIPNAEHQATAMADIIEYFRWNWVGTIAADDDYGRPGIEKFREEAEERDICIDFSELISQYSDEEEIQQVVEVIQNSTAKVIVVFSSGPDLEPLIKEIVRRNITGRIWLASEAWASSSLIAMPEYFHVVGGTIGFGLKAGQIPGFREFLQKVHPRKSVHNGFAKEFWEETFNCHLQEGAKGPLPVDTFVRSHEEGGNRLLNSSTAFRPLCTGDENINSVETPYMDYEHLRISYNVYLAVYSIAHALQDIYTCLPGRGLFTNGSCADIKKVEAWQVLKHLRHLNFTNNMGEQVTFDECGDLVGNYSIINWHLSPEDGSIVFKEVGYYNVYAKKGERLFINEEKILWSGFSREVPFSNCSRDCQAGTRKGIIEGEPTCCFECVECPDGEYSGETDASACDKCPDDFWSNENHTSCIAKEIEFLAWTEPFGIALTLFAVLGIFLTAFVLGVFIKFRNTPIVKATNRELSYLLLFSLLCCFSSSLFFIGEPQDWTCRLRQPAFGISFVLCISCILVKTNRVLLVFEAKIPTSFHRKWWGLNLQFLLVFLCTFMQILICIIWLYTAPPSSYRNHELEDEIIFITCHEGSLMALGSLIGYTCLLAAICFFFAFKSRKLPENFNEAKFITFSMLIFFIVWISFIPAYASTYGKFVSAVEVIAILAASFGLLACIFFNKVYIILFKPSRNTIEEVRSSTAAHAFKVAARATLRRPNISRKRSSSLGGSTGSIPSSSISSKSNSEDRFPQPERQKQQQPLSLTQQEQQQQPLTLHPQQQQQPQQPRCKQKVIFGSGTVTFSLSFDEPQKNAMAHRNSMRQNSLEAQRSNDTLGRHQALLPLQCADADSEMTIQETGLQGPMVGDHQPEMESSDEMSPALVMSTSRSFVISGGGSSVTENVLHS
Experiment: IP-One assay, HEK293T transiently transfected
Assay type: cell-based

## [Ca+2] [Ca^2+]
Ca^2+ alone
  EC50: 31.8 mM
  Hill coefficient ± S.E.M.: 4.05 ± 0.43
  pEC50 ± S.E.M.: 1.50 ± 0.04
Normalized to maximum response of WT CaSR
  Max ± S.E.M.: 49 ± 2.5%
